Assay results as given in patent US12270065B2, “Methods for improving titer and purity of beta carotene fermentation in Blakeslea trispora (beta-carotene fermentation method)” (DSM IP Assets B.V., priority 2019, dated 2025).

Experiments:
[1] = test system: B. trispora; test: Effect on beta-carotene production with B. trispora in shake flask fermentation (HPLC); assay type: cell-based, Blakeslea trispora; conditions: for BC: average of two measurements; for Increase BC: compared to control with no curcumin/isoniazid
Procedure: (§1) Shake flask seed medium MIBLT-1. 23.5 g/l corn meal, 23 g/l soybean meal, 10 g/l glucose, 0.5 g/l KH2PO4 are mixed, the medium pH is adjusted to 6.3, homogenized with an Ultra-Turrax® blender (Ika) for 8 minutes at 13500 rpm, and heated at 70° C. for 45 minutes prior to autoclaving.
(§2) Shake flask production medium MF-BLT-22. 17.5 g/l corn meal, 40 g/l soya flour, 10 g/l soy lecithin, 0.5 g/l KH2PO4, 109 g/l soy oil, optionally 0.28 g/l isoniazid, optionally curcumin (1.0, 0.3, 0.1, 0.03 or 0.01% w/v), are mixed, the medium pH is adjusted to 6.3, is homogenized with an Ultra-Turrax® blender (Ika) for 8 minutes at 13500 rpm, and heated at 70° C. for 45 minutes prior to autoclaving.
(§3) Shake Flask Process. An Erlenmeyer flask (250 or 300 mL volume) containing 30 ml of seed medium (MIBLT-1) is inoculated with spores of B. trispora (−) strain to a concentration of 4.5×10^3 spores/ml. A second Erlenmeyer flask containing 30 ml of MIBLT-1 is inoculated with spores of B. trispora (+) strain to a concentration of 1.5×10^3 spores/ml. The flasks are incubated (220 rpm, 5 cm displacement, 27° C., protected from light) for 48 hr. Three ml of (+) strain culture are added to 30 ml of (−) strain culture, and the mated strains mixture is incubated (220 rpm, 5 cm throw, 27° C., protected from light) for 45 minutes. Erlenmeyer flasks (250 or 300 mL volume) containing 20 ml of production medium (MF-BLT-22) are inoculated with 2 ml of the mated strains mixture. Flasks are incubated (250 rpm, 5 cm displacement, 25° C., protected from light). At 48 hours after inoculation of the 20 mL production cultures, 40 μL of a 50% v/v sterile beta-ionone solution in absolute ethanol is added to each flask. Cultures are returned to the incubator for a total of 7 days post inoculation.
(§4) Sample preparation for HPLC-analysis. Each flask culture is transferred to a 50 mL conical tube and homogenized with an Ultra-Turrax® blender (Ika) for 2 minutes at 24000 rpm. Weigh out one gram of sample into a 100 ml volumetric flask. Eighty milliliters of Solution A are added to the flask and the flask is sonicated for 5 min. The volume is brought to 100 ml with solution A, and the solution is stirred for 60 minutes and allowed to settle for another hour.
(§5) HPLC-analysis. Samples from the above extract (10 μl) are injected as is on a calibrated HPLC using a Suplex-PKB-100 column (Supelco), with a flow rate of 0.6 ml/min, and column temperature of 30° C. The mobile phase contains (per L) 455 ml acetonitrile, 500 ml methanol, 0.2 ml N-ethyldiisopropylamine, 25 ml aqueous solution of 0.2% ammonium acetate, and 50 mg BHT (dissolved in 20 ml of 2-propanol). Compounds are identified and quantified by UV at 448 nm.
Concentration of beta-carotene was measured as described in Example 1, with comparison of different concentrations of curcumin.

[2] = test system: B. trispora; test: Effect on beta-carotene purity profile with B. trispora (percentage of total carotenoids, HPLC); assay type: cell-based, Blakeslea trispora; conditions: for 7,8-DH [%] of total carotenoids / BC [%] of total carotenoids: average of two measurements
Procedure: as §1, §2, §3, §4, §5
Fermentations and analysis were performed as described in Ex. 2, including addition of various concentrations of curcumin.

[3] = curcumin 0.3% w/v, listed as Curcumin

COc1cc(/C=C/C(=O)CC(=O)/C=C/c2ccc(O)c(OC)c2)ccc1O [curcumin]
BC ([1]; curcumin 0.01% w/v in production medium, no isoniazid): 1.74 g/L
Increase BC ([1]; curcumin 0.01% w/v): 12%
BC ([1]; curcumin 0.03% w/v in production medium, no isoniazid): 2.45 g/L
Increase BC ([1]; curcumin 0.03% w/v): 58%
BC ([1]; curcumin 0.1% w/v in production medium, no isoniazid): 3.48 g/L
Increase BC ([1]; curcumin 0.1% w/v): 125%
BC ([1]; curcumin 0.3% w/v in production medium, no isoniazid): 4.99 g/L
Increase BC ([1]; curcumin 0.3% w/v): more than 220%
Increase BC [1, 3]: 222%
BC ([1]; curcumin 1.0% w/v in production medium, no isoniazid): 4.55 g/L
Increase BC ([1]; curcumin 1.0% w/v): 194%
increase of percentage of beta-carotene based on total carotenoids ([2]; 0.3% curcumin, compared to fermentations without curcumin): about 10%
percentage of 7,8-dihydro-beta-carotene based on total carotenoids ([2]; about 0.3 to 1.0% curcumin): about 3%
reduction of 7,8-dihydro-beta-carotene based on total carotenoids ([2]; about 1.0% (w/v) curcumin, compared to no curcumin): about 68%
reduction of 7,8-dihydro-beta-carotene based on total carotenoids ([2]; addition of curcumin (amount not specified), compared to fermentation without curcumin): at least 28%
7,8-DH [%] of total carotenoids ([2]; curcumin 0.01% w/v): 9.98%
BC [%] of total carotenoids ([2]; curcumin 0.01% w/v): 81.19%
7,8-DH [%] of total carotenoids ([2]; curcumin 0.03% w/v): 6.99%
BC [%] of total carotenoids ([2]; curcumin 0.03% w/v): 85.59%
7,8-DH [%] of total carotenoids ([2]; curcumin 0.1% w/v): 5.79%
BC [%] of total carotenoids ([2]; curcumin 0.1% w/v): 86.75%
7,8-DH [%] of total carotenoids ([2]; curcumin 0.3% w/v): 3.35%
BC [%] of total carotenoids ([2]; curcumin 0.3% w/v): about 91%
BC [%] of total carotenoids [2, 3]: 91.44%
7,8-DH [%] of total carotenoids ([2]; curcumin 1.0% w/v): 3.12%
BC [%] of total carotenoids ([2]; curcumin 1.0% w/v): 92.17%

NNC(=O)c1ccncc1 [isoniazid, reference compound]
BC ([1]; isoniazid 0.28 g/l in production medium, no curcumin): 4.17 g/L
increase in the percentage of beta-carotene based on total carotenoids ([2]; addition of 0.28 g/l isoniazid, compared to no isoniazid): less than 10%
percentage of 7,8-dihydro-beta-carotene based on total carotenoids ([2]; addition of isoniazid (0.28 g/l)): 28.1%
